Assay: Inhibitors of Cruzain: PBS Stability Profiling Assay
Details: PBS pH 7 stability, 37 C, LC-MS/MS, 48 h; at 2 µM; stronger effect = higher value
Excerpt: Chagas Disease is a neglected tropical disease that affects over 16 million people in Latin America. The cysteine protease cruzain is essential for the survival Trypanosoma cruzi, the parasitic agent responsible for Chagas disease. Potential intervention for T. cruzi includes the inhibition of cruzain. This bioassay will summarize the ongoing development of small molecule cruzain inhbitiors. Currently, a screen of ~200k compounds and through extensive follow-up work a probe was identified. To further characterize the probe, it was tested in in vitro ADME assays. The stability of the lead compound in PBS buffer is tested because this parameter has a significant impact on many ADME-concerned properties of drugs, such as uptake, distribution, transport, and eventually bioavailability. NIH Chemical Genomics Center [NCGC] NIH Molecular Libraries Probe Production Centers Network [MLPCN] MLSCN Grant: DA024891-01 PI Name: Dr. Brian Shoichet; University of California, San Francisco
2uM of compound is incubated in PBS buffer at pH 7; the reference compound is procaine. Compounds are incubated at 37 deg C for the pre-determined time periods and the when aliquots are removed. Samples are analyzed with LC-MS/MS.

percent remaining: 100%
SMILES: Cc1ccc(OCCn2c(CCNC(=O)C3CCCCC3)nc3ccccc32)cc1

— PubChem BioAssay AID504752 (National Center for Advancing Translational Sciences (NCATS), 2011)
